Source: ChEMBL document CHEMBL1201862, “PubChem BioAssay data set” (2004)
Active and inactive are the calls of the source.

How the values were obtained:
[1] = target: T1, Short transient receptor potential channel 4 (Mus musculus, UniProt Q9QUQ5); assay: SAR Analysis for the identification of selective inhibits of the transient receptor potential cation channel C4 (TRPC4): Automated Electrophysiology. [Related pubchem assays (depositor defined):AID2256]; assay type: functional
T1 sequence (Q9QUQ5 whole entry): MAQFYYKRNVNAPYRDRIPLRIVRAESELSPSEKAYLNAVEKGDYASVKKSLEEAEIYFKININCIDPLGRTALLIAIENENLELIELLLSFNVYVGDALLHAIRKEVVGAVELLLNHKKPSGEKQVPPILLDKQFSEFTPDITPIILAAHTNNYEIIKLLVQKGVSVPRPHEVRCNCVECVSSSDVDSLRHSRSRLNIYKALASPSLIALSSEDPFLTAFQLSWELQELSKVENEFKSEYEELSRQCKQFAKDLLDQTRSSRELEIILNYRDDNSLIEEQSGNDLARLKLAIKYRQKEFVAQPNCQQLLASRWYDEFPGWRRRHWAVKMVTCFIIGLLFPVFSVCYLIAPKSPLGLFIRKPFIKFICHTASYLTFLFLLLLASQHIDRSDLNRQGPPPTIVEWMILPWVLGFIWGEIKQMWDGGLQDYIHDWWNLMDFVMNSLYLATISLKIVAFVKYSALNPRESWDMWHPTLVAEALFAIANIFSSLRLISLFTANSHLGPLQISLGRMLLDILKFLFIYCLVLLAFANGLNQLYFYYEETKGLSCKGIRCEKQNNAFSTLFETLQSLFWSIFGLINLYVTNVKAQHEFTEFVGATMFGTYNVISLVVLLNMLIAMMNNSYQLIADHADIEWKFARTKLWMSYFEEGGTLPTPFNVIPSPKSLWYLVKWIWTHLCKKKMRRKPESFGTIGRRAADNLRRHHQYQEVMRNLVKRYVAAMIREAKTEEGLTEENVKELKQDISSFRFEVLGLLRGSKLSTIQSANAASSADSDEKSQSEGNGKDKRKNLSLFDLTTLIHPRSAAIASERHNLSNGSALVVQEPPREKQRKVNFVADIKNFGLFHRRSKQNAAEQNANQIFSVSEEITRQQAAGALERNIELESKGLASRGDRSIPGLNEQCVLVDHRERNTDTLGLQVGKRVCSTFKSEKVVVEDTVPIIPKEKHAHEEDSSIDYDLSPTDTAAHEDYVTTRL

[2] = target: T1, Short transient receptor potential channel 4; assay: block of DAMGO-driven TRPC4 calcium entry – cell-based, HEK293 TRPC4/mu-opioid, Fluo-4 calcium, dose response (AID 434942); assay type: functional;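 note: potency of inhibitors blocking the TRPC4 calcium response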
[3] = NIH3T3 cell viability loss – ATP luminescence, mouse fibroblasts, counter-screen, dose response (AID 2010); assay type: functional, cell-based;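 note: cells exposed to compound for about 90 hours before reading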
[4] = target: Intestinal-type alkaline phosphatase (Homo sapiens, UniProt P09923); assay: inhibition of human intestinal alkaline phosphatase – biochemical, dose response (AID 488876); assay type: functional
[5] = Trypanosoma cruzi growth suppression in host cells – NIH3T3 host cells, beta-gal luminescence, confirmation (AID 2044); assay type: functional, cell-based;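 note: intracellular parasites grown in NIH/3T3 mouse fibroblasts as host cells; luminescent beta-galactosidase reporter signal from transgenic T. cruzi replicating inside host cells; inhibitors lower the luminescence signal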
[6] = target: T2, Alkaline phosphatase, tissue-nonspecific isozyme (Homo sapiens, UniProt P05186); assay: TNAP enzyme inhibition by screening hits, dose response, selectivity assay for mouse IAP inhibitor project, biochemical, human TNAP, uHTS hits (AID 488906); assay type: functional
T2 sequence (P05186 whole entry): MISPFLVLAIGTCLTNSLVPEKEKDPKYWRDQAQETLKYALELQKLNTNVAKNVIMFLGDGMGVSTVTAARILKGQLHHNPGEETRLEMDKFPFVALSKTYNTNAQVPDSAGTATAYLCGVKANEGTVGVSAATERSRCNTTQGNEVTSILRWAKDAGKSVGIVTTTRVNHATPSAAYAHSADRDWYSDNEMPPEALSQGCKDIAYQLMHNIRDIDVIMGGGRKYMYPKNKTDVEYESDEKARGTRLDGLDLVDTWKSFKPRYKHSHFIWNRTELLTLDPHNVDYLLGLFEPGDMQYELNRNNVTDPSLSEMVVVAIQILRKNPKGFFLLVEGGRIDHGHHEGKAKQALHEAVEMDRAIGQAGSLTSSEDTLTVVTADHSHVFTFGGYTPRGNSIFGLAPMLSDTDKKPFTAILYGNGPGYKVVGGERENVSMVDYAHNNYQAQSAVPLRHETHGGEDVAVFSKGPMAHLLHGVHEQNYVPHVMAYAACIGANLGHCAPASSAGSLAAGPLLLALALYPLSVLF

[7] = target: Intestinal-type alkaline phosphatase (Mus musculus, UniProt P24822); assay: PubChem AID 488785; assay type: functional
[8] = microbe, parasite or virus in culture; assay type: functional; details: Mycobacterium tuberculosis
[9] = target: T3, Beta-2 adrenergic receptor (Homo sapiens, UniProt P07550); assay: Dose response for HTS for Beta-2AR agonists via FAP method from Powderset3.; assay type: functional
[10] = target: T3, Beta-2 adrenergic receptor; assay: ADRB2 activation measured by internalization – cell-based, FAP fluorogen, flow cytometry, cherry pick 1, dose response (AID 588763); assay type: functional
[11] = viability of PTEN-deleted HCT116 cells – cell-based, HCT116 PTEN knockout, dose response (AID 1047); assay type: functional;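 note: HCT116 colon tumor cells with PTEN knocked out; cells exposed to compound for 60 hours before readout; potency for loss of cell viability measured by luminescence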
[12] = target: G-protein coupled receptor 55 (Homo sapiens, UniProt Q9Y2T6); assay: blockers of GPR55 signalling, imaged – imaging, image-based, counter-screen for GPR35 antagonist project, SAR follow-up (AID 2397); assay type: functional
[13] = target: T4, G-protein coupled receptor 35 (Homo sapiens, UniProt Q9HC97); assay: SAR Analysis for the identification of Selective Antagonists of ERK1/2 Activity in GPR35-Overexpressing U2OS Cells. [Related pubchem assays: 2079, 2058 ]; assay type: functional, cell-based
[14] = target: T4, G-protein coupled receptor 35; assay: inhibition of zaprinast-stimulated GPR35 beta-arrestin translocation – imaging, U2OS, beta-arrestin-GFP, zaprinast agonist, primary screen (AID 2058); assay type: functional;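 note: antagonist potency meaning inhibition of agonist-induced arrestin redistribution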
[15] = viability of HCT116 lacking mutant beta-catenin – cell-based, human colon tumor, dose response (AID 1045); assay type: functional;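 note: HCT116 colon tumor cells with beta catenin knocked out; cells exposed to compound for 60 hours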
Cytochrome P450 2D6 = Cytochrome P450 2D6 (Homo sapiens, UniProt P10635);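 note: CYP2D6 member of a cytochrome P450 panel assay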
CAAX prenyl protease 1 = CAAX prenyl protease 1 (Saccharomyces cerevisiae S288c, UniProt P47154); assay: yeast CAAX protease Ste24 inhibition – biochemical, S. cerevisiae, plate reader, cherry-pick, dose response (AID 488815)
[16] = target: FAD-linked sulfhydryl oxidase ALR (Homo sapiens, UniProt P55789); assay: ALR-catalysed DTT oxidation blockers – biochemical, H2O2 detection, luminescence, cherry-pick, dose response (AID 493248)
Trypsin = Trypsin (Sus scrofa, UniProt P00761); assay: trypsin protease activity blockade – biochemical, quenched peptide fluorescence, cherry-pick, selectivity assay for Rce1 protease inhibitor project, dose response (AID 488789)
CAAX prenyl protease 2 = CAAX prenyl protease 2 (Homo sapiens, UniProt Q9Y256); assay: inhibition of Ras-converting CAAX protease Rce1 – biochemical, yeast membranes, quenched-peptide fluorescence, cherry-pick, dose response (AID 588849)
[17] = target: T5, Dual specificity protein phosphatase 3 (Homo sapiens, UniProt P51452); assay: VHR1 phosphatase inhibitors, biochemical (AID 1878)
[18] = target: T6, Dual specificity protein phosphatase 6 (Rattus norvegicus, UniProt Q64346); assay: inhibition of rat DUSP6 enzyme activity – biochemical, in vitro, primary screen (AID 425)
T6 sequence (Q64346 whole entry): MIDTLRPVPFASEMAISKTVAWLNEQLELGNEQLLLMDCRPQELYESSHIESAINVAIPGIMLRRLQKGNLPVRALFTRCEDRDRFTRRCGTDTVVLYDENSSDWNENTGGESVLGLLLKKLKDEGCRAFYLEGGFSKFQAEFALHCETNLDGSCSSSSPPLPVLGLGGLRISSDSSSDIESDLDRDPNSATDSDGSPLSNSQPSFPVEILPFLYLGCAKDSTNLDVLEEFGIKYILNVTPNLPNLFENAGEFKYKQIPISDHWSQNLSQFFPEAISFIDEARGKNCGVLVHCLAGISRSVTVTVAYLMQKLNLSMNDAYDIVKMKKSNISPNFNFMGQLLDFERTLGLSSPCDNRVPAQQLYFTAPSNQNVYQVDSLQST

[19] = target: T5, Dual specificity protein phosphatase 3; assay: VHR1 phosphatase inhibitors, primary screen, biochemical, absorbance, uHTS (AID 1654)
[20] = target: T7, Voltage-gated N-type calcium channel alpha-1B subunit/Amyloid beta A4 precursor protein-binding family A member 1 (Homo sapiens, UniProt Q00975+Q02410); assay type: protein assay
[21] = target: T7, Voltage-gated N-type calcium channel alpha-1B subunit/Amyloid beta A4 precursor protein-binding family A member 1; assay type: protein assay; remark: listed apart in the source
[22] = target: T8, Carboxy-terminal domain RNA polymerase II polypeptide A small phosphatase 1 (Homo sapiens, UniProt Q9GZU7); assay: CTDSP1 inhibitors, concentration-response, biochemical, absorbance readout, ultra-high-throughput screen actives (AID 540297); assay type: functional
T8 sequence (Q9GZU7 whole entry): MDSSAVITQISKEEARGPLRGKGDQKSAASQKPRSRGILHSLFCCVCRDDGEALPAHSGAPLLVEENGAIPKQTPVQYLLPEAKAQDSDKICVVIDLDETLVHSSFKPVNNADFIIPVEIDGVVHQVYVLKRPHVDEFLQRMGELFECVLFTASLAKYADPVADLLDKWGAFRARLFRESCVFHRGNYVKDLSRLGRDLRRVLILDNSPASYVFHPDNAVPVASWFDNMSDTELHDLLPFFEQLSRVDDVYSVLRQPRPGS

T4 sequence (Q9HC97 whole entry): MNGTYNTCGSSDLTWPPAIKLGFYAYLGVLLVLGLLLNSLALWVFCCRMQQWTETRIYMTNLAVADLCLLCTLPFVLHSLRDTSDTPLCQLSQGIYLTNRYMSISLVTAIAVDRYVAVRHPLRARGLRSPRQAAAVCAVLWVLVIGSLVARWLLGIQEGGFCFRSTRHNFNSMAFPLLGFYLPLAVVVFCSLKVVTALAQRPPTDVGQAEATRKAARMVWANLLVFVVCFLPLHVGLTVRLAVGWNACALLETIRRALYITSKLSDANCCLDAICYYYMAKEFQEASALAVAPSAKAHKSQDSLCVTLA
T3 sequence (P07550 whole entry): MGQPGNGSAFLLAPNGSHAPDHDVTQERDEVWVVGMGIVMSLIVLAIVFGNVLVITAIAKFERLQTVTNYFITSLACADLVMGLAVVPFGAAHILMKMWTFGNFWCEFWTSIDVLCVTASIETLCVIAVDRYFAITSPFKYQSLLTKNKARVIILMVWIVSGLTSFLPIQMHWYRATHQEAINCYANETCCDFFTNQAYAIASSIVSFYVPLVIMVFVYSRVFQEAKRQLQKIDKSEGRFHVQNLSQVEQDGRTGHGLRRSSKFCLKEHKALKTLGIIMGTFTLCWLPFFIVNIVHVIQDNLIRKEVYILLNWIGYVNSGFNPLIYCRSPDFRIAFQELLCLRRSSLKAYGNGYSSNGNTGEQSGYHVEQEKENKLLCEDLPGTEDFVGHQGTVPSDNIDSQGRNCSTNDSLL
T5 sequence (P51452 whole entry): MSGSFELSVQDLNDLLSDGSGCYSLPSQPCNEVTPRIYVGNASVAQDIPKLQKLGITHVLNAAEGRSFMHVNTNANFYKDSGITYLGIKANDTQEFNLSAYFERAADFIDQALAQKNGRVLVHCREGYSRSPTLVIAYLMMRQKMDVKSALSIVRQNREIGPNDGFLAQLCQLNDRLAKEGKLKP
T7 sequence (Q00975 whole entry): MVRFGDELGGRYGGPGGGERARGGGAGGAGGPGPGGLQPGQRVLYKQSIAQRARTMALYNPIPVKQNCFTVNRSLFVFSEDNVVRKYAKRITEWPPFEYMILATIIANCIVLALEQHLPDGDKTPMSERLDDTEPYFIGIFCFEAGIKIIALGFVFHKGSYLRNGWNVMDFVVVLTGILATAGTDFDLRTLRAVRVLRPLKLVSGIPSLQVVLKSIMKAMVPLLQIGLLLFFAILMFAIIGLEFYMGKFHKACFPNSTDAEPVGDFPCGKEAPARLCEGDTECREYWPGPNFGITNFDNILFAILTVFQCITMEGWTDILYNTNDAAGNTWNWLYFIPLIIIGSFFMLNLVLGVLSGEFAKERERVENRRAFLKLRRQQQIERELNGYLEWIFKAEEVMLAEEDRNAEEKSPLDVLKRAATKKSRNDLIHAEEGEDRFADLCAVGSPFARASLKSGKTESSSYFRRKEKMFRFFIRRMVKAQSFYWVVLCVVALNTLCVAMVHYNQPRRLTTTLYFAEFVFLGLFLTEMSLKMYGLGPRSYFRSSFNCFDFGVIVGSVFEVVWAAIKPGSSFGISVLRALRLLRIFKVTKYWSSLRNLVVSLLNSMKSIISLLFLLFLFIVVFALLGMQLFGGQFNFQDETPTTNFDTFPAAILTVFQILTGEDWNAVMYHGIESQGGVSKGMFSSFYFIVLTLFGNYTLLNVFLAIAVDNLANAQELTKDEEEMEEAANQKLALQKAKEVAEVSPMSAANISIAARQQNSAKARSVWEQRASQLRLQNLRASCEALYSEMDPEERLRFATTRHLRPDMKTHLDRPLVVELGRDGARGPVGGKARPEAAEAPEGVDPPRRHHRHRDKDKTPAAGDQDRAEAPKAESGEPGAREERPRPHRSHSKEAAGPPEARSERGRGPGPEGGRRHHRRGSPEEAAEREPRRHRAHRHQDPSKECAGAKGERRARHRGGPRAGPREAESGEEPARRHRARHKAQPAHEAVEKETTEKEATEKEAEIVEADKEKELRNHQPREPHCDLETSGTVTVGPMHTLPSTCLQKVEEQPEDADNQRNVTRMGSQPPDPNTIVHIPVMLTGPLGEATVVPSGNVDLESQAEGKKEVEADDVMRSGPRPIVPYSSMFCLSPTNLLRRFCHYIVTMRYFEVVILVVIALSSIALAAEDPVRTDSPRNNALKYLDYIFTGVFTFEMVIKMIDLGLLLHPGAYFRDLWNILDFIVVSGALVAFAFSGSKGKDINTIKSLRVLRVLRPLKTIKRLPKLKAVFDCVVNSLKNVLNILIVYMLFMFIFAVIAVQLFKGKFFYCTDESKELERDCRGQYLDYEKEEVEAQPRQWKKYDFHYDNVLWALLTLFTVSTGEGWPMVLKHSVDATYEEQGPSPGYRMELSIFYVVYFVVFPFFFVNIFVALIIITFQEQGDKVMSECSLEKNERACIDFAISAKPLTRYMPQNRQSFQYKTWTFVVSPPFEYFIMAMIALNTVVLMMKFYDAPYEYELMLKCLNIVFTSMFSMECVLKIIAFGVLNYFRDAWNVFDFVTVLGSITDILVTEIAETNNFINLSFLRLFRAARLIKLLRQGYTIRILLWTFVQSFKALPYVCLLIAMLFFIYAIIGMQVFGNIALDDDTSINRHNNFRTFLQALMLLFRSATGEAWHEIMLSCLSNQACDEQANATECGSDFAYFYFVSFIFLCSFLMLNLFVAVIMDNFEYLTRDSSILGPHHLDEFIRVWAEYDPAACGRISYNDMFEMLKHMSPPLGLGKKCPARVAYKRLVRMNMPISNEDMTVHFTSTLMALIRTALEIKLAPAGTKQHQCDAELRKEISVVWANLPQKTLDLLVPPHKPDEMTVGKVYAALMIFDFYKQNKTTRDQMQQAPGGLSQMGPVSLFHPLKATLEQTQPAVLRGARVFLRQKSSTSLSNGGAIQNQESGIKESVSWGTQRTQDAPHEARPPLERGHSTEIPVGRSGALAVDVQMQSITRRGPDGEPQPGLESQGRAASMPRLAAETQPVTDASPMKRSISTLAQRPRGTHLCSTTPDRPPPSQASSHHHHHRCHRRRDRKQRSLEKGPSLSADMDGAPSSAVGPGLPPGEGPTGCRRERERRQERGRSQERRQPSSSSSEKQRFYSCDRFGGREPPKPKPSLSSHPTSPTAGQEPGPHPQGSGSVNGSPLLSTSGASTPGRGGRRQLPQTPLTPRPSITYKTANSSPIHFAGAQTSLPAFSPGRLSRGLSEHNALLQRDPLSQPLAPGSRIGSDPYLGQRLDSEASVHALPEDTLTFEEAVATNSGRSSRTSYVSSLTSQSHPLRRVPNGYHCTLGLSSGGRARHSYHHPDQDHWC
T7 sequence (Q02410 whole entry): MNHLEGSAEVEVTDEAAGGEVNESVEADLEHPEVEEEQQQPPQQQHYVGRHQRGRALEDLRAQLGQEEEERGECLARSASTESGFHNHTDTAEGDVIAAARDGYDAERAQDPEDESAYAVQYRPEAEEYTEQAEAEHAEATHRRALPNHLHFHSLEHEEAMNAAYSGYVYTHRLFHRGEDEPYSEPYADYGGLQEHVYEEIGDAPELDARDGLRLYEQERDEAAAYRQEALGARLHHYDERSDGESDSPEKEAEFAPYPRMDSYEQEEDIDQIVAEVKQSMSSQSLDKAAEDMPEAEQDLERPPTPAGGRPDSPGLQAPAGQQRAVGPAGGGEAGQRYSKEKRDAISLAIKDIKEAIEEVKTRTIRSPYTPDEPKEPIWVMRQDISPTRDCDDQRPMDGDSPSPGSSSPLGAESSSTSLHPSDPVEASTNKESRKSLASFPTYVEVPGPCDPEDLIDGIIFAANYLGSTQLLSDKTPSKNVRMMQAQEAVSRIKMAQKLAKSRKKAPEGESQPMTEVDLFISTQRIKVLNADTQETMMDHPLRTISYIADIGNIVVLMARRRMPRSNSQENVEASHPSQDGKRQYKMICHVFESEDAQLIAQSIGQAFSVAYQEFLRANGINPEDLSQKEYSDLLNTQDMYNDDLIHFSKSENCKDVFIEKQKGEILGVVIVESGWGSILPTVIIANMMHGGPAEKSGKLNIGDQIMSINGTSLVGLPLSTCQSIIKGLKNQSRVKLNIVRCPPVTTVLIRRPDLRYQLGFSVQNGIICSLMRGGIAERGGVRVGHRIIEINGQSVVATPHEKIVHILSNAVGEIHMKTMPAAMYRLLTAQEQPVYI
CAAX prenyl protease 1, sequence (P47154 whole entry): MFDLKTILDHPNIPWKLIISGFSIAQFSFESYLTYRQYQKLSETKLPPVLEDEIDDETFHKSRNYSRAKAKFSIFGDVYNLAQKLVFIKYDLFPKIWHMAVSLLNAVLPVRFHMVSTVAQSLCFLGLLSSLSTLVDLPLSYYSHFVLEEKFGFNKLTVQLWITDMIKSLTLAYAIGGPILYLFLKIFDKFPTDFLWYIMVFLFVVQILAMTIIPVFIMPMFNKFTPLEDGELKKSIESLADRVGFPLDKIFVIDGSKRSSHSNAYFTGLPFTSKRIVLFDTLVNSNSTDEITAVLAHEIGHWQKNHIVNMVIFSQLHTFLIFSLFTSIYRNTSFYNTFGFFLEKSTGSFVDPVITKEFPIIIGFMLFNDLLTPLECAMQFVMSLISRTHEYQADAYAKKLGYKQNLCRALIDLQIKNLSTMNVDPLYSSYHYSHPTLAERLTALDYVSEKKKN
G-protein coupled receptor 55, sequence (Q9Y2T6 whole entry): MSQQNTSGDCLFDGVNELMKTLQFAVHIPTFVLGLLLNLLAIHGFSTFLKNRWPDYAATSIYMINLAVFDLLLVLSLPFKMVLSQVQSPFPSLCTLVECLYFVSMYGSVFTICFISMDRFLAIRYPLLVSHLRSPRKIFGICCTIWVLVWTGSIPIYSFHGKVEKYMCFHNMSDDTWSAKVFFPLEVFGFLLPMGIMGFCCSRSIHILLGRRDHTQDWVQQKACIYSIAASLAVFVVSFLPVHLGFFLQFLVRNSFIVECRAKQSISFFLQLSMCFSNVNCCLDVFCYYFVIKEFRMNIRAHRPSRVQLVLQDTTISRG

Question: What does the source list for N=C(NC1CCCCC1)c1ccc(Cl)cc1?
Answer: IC50 [1]: 4.56 µM (active); EC50 [2]: 1.68 µM (active)

Question: With Cc1nn(C(C)C)c(C)c1CN1CCC(C(=O)Nc2cccc(-c3cccc(F)c3)c2)CC1 as the compound, how does the EC50 [3] read?
Answer: 30.4 µM (active)

Question: And the IC50 [4]?
Answer: 12 µM (active)

Question: And the EC50 [5]?
Answer: 1.15 µM (active)

Question: What about the IC50 [6] of the same compound?
Answer: 53 µM (active)

Question: What about the IC50 [7] of the same compound?
Answer: 7.53 µM (active)

Question: For Cc1ccccc1N1CCN(c2ncnc3c2cnn3Cc2ccc(Cl)cc2)CC1, which CC50 [8] is on record?
Answer: > 40 µM (active)

Question: And the EC50 [9]?
Answer: 1.14 µM (active)

Question: And the EC50 [10]?
Answer: 4.09 µM (active)

Question: And the EC50 [11]?
Answer: 42.2 µM (active)

Question: What about the IC50 [12] of the same compound?
Answer: > 32 µM (inactive)

Question: What about the IC50 [13] of the same compound?
Answer: > 32 µM (not active)

Question: And the IC50 [14]?
Answer: 0.615 µM (active)

Question: What about the EC50 [15] of the same compound?
Answer: 54.1 µM (active)

Question: With Cc1cc2c(s1)CCCCC(=O)N2 as the compound, how does the AC50 (Cytochrome P450 2D6) read?
Answer: inconclusive

Question: For Oc1ccc(-c2cn3cc(C(F)(F)F)ccc3n2)cc1, which AC50 (CAAX prenyl protease 1) is on record?
Answer: 8.29 µM (active)

Question: And the AC50 [16]?
Answer: 3.4 µM (active)

Question: What about the AC50 (Trypsin) of the same compound?
Answer: 11.1 µM (active)

Question: What about the AC50 (CAAX prenyl protease 2) of the same compound?
Answer: 10.5 µM (active)

Question: Which results are given for COc1ccc(NC(=O)c2cc3c(COC(C)=O)cnc(C)c3o/c2=N\c2cccc(C(=O)O)c2)c(OC)c1?
Answer: IC50 [17]: 1.53 µM (active); IC50 [18]: > 158 µM (not active); IC50 [19]: 4.9 µM (active); IC50 [20]: 3.13 µM (active); IC50 [21]: > 50 µM (inactive); IC50 [22]: 0.737 µM (active)
